In paper PMC5767893 (ACS Medicinal Chemistry Letters, 2017):

How the values were obtained:
p300 HAT domain = target: T1, p300 HAT domain (Homo sapiens, UniProt Q09472); conditions: for LE (ligand efficiency): LE = −1.4 log Ki/# heavy atoms
T1 sequence (Q09472 1287-1663 limits assumed): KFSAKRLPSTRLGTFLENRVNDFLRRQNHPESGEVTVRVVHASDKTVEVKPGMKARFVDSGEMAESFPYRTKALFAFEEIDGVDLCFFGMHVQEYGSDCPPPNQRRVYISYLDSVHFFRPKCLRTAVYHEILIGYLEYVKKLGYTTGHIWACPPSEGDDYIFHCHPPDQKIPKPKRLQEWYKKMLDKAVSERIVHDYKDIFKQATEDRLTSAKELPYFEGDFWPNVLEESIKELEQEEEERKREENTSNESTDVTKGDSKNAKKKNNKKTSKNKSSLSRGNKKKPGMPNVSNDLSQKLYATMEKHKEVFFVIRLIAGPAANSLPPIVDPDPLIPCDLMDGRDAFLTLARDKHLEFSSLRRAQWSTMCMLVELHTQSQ

[1] = mouse
[2] = Mouse microsomal stability; type: in vitro ADME; conditions: microsomes
Plasma protein binding = type: in vitro ADME; conditions: mouse
in vivo = conditions: mouse, plasma, po, 1 mg/kg
[3] = Nonspecific microsomal binding; type: in vitro ADME; conditions: human, microsomes

Compound: Cc1ccccc1C1NC(=O)N(CC(=O)N(Cc2ccccc2)[C@@H](C)C2CC2)C1=O (stereo partly drawn) [Compound 3b]
- LE (ligand efficiency) (p300 HAT domain): 0.27

Compound: CNC(=O)Nc1ccc2c(c1)CC[C@]21NC(=O)N(CC(=O)N(Cc2ccccc2)[C@@H](C)C2CC2)C1=O [Compound 20]
- oral AUC ([1]; 10 mg/kg oral dose): no exposure

Compound: CC(C1CC1)N(Cc1ccccc1)C(=O)CN1C(=O)NC(Cc2c[nH]c3ccccc23)C1=O (stereo not drawn) [Compound 1]
- LE (ligand efficiency) (p300 HAT domain): 0.23
- LipE (lipid efficiency) (p300 HAT domain; LipE = −log Ki – clogP): 3

Compound: CNC(=O)Nc1ccc2c(c1)CC[C@@]21OC(=O)N(CC(=O)N(Cc2ccccc2)[C@@H](C)C2CC2)C1=O [Compound 22]
- CLint scaled [2]: 188 L/h/kg
- mouse microsomal stability CL scaled [2]: 107 L/h/kg

Compound: CNC(=O)Nc1ccc2c(c1)CC[C@@]21OC(=O)N(CC(=O)N(Cc2ccc(F)cc2)[C@H](C2CC2)C(F)(F)F)C1=O [Compound 23]
- F % oral [1]: 45%
- fraction unbound (Plasma protein binding): 0.002
- CLint scaled [2]: 181 L/h/kg
- mouse microsomal stability CL scaled [2]: 41 L/h/kg
- AUC (in vivo): 1100 ng·h/mL
- fraction unbound [3]: 0.22
